2 molecules from paper PMC3950514 (mBio, 2014) can be followed below.

For assay [1], the target named is CnCam1 with human calcineurin (Cryptococcus neoformans, UniProt J9VTH9). Kind of assay: malachite green phosphate release from RII phosphopeptide by human calcineurin. In kind it is biochemical.
The target in assay [2] is C. neoformans calmodulin (Cam1) (C. neoformans). In words: pull-down.

green fluorescent protein (GFP)-tagged C. neoformans calcineurin (Cna1-GFP), sequence (O42773 whole entry): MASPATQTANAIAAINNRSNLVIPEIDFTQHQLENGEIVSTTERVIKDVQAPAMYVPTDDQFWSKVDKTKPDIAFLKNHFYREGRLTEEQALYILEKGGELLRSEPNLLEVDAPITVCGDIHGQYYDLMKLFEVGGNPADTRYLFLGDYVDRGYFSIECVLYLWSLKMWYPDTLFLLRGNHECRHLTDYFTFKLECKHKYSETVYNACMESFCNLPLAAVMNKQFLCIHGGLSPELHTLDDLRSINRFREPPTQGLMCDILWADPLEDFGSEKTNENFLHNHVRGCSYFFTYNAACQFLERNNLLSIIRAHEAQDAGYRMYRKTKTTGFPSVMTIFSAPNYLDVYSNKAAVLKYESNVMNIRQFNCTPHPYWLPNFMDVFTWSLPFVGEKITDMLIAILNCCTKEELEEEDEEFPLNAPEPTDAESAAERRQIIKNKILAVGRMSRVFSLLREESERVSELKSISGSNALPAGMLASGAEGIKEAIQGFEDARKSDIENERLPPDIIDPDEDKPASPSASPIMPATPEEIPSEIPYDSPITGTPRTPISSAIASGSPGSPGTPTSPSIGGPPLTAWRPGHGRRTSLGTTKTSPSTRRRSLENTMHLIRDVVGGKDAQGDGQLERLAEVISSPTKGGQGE

One may read the IC50 as the concentration at which inhibition is half-maximal. Turning to `CN(C)CCOc1ccc(/C(=C(/CCCl)c2ccccc2)c2ccccc2)cc1` [TOR, toremifene], the IC50 in assay [1] was 61.6 µM. On to “green fluorescent protein (GFP)-tagged C. neoformans calcineurin (Cna1-GFP) (from UniProt O42773 1-639) (enzyme)”, for which, in assay [2], the percent reduction of the bound amount with toremifene (20 µg/ml) against DMSO came out at 45%.
